This is an account of results in US20160002248A1, “GLS1 INHIBITORS FOR TREATING DISEASE” (Board of Regents, The University of Texas System, priority 2014, published 2016).

Usually EC50 stands for the concentration that produces a half-maximal response. Read a high EC50 as a less potent agent. In general, IC50 refers to the midpoint of a concentration-inhibition curve.

For one assay, the system named is A549 cells. Briefly: Proliferation Assay (A549 cell viability, Cell Titer Fluor). The class given is cell-based. The settings on record: Homo sapiens, 72 hours. An outline of the steps: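 A549 cells in RPMI 1640 with 10% dialyzed FBS were seeded at 1000 cells/well, grown 24 h, then exposed to compound (0.5% DMSO final) for 72 h at 37 °C, 5% CO2. Viability was read by Cell Titer Fluor fluorescence; EC50 from four-parameter logistic fit.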

Assay [1] deals with T1, purified recombinant human GAC (GLS1) (Homo sapiens, UniProt O94925).
T1 sequence (O94925 55-598 isoform O94925-3 limits assumed): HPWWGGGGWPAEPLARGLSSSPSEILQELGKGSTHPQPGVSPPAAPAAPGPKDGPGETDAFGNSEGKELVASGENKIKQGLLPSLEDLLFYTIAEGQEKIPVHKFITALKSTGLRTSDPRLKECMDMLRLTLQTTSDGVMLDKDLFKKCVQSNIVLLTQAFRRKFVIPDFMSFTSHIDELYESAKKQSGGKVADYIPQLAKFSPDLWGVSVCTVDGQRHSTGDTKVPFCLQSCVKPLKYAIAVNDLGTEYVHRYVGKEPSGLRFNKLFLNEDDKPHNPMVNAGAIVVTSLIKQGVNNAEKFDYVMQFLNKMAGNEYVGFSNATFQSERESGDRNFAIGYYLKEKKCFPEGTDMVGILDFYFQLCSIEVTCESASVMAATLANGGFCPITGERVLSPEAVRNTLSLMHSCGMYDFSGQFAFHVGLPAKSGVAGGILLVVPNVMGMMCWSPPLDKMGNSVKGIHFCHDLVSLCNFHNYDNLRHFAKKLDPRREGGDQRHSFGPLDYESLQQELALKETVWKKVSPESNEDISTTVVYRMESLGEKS
The experiment in a line: GLS1 Enzymatic Activity Assay (dual-coupled enzymatic assay). The class given is biochemical. The method in brief: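 GAC activity measured by coupling glutamate to glutamate oxidase and HRP, generating resorufin from Amplex UltraRed. Enzyme (2 nM) preincubated with 50 mM potassium phosphate 10 min at room temperature, then inhibitor 10 min; 1 mM glutamine substrate, 1% DMSO. Fluorescence 530/590 nm, kinetic or 20-min endpoint; IC50 from four-parameter logistic fit.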

`Cc1ccc(CNC(=O)c2cn(CCCCc3cc4c(I)c(C5CC5)[nH]c4nn3)nn2)cn1` [Example 91, 1-(4-{6-cyclopropyl-5-iodo-7H-pyrrolo[2,3-c]pyridazin-3-yl}butyl)-N-[(6-methylpyridin-3-yl)methyl]-1H-1,2,3-triazole-4-carboxamide] returned an EC50 in the assay on A549 cells of 100 to 500 nM. In assay [1], the IC50 was less than 100 nM.
Compound `Cc1ccc(CNC(=O)c2cn(CCCCc3cc4cc(Cc5ccccc5)[nH]c4nn3)nn2)cn1` [Example 92, 1-(4-{6-benzyl-7H-pyrrolo[2,3-c]pyridazin-3-yl}butyl)-N-[(6-methylpyridin-3-yl)methyl]-1H-1,2,3-triazole-4-carboxamide] yielded an EC50 with A549 cells of 100 to 500 nM. The IC50 in assay [1] is less than 100 nM.
In the same order, the values of `CC(C)(C)OC(=O)NCc1cccc(CNC(=O)c2cn(CCCCc3cc4cc(C5CC5)[nH]c4nn3)nn2)c1` [Example 93, tert-butyl N-{[3-({[1-(4-{6-cyclopropyl-7H-pyrrolo[2,3-c]pyridazin-3-yl}butyl)-1H-1,2,3-triazol-4-yl]formamido}methyl)phenyl]methyl}carbamate] are less than 100 nM and less than 100 nM.
Taken in the same sequence, the figures for `Cc1ccc(CNC(=O)c2cn(CCCCc3cc4cc(C5CN(C(=O)OC(C)(C)C)C5)[nH]c4nn3)nn2)cn1` [Example 94, tert-butyl 3-{3-[4-(4-{[(6-methylpyridin-3-yl)methyl]carbamoyl}-1H-1,2,3-triazol-1-yl)butyl]-7H-pyrrolo[2,3-c]pyridazin-6-yl}azetidine-1-carboxylate] were 100 to 500 nM and less than 100 nM.
In the assay with A549 cells, `Cc1ccc(CNC(=O)c2cn(CCCCc3cc4cc(C5CCN(C(=O)OC(C)(C)C)CC5)[nH]c4nn3)nn2)cn1` [Example 95, ten-butyl 4-{3-[4-(4-{[(6-methylpyridin-3-yl)methyl]carbamoyl}-1H-1,2,3-triazol-1-yl)butyl]-7H-pyrrolo[2,3-c]pyridazin-6-yl}piperidine-1-carboxylate] displayed an EC50 of 100 to 500 nM. For the same compound, in assay [1], the IC50 was less than 100 nM.
In the same order, the values of `Cc1ccc(CNC(=O)c2cn(CCCCc3cc4c(C5CC5)c(C5CC5)[nH]c4nn3)nn2)cn1` [Example 96, 1-(4-(5,6-dicyclopropyl-7H-pyrrolo[2,3-c]pyridazin-3-yl)butyl)-N-((6-methylpyridin-3-yl)methyl)-1H-1,2,3-triazole-4-carboxamide] are 100 to 500 nM and less than 100 nM.
Taken in the same sequence, the figures for `Cc1ccc(CNC(=O)c2cn(CCCCc3cc4cc(C5CNC5)[nH]c4nn3)nn2)cn1` [Example 97, 1-{4-[6-(azetidin-3-yl)-7H-pyrrolo[2,3-c]pyridazin-3-yl]butyl}-N-[(6-methylpyridin-3-yl)methyl]-1H-1,2,3-triazole-4-carboxamide] were 500 to 5000 nM and 100 to 500 nM.
As to `Cc1ccc(CNC(=O)c2cn(CCCCc3cc4cc(C5CCNCC5)[nH]c4nn3)nn2)cn1` [Example 98, N-[(6-methylpyridin-3-yl)methyl]-1-{4-[6-(piperidin-4-yl)-7H-pyrrolo[2,3-c]pyridazin-3-yl]butyl}-1H-1,2,3-triazole-4-carboxamide], in the assay with A549 cells, the EC50 was more than 5000 nM. Besides, the IC50 in assay [1] is 500 to 5000 nM.
In the same order, the values of `Cc1ccc(CNC(=O)c2cn(CCCCc3cc4cc(C5CCOCC5)[nH]c4nn3)nn2)cn1` [Example 99, N-[(6-methylpyridin-3-yl)methyl]-1-{4-[6-(oxan-4-yl)-7H-pyrrolo[2,3-c]pyridazin-3-yl]butyl}-1H-1,2,3-triazole-4-carboxamide] are 500 to 5000 nM and 100 to 500 nM.
Turning to `Cc1ccc(CNC(=O)c2cn(CCCCc3cc4c(CCc5ccccc5)c(C5CC5)[nH]c4nn3)nn2)cn1` [Example 100, 1-{4-[6-cyclopropyl-5-(2-phenylethyl)-7H-pyrrolo[2,3-c]pyridazin-3-yl]butyl}-N-[(6-methylpyridin-3-yl)methyl]-1H-1,2,3-triazole-4-carboxamide], the EC50 with A549 cells fell in the range of 100 to 500 nM. Moreover, the IC50 in assay [1] was less than 100 nM.
With `O=C(NCc1ccccn1)c1cn(CCCCc2cc3c(Cc4ccc5ccccc5c4)c(C4CC4)[nH]c3nn2)nn1` [Example 101, 1-{4-[6-cyclopropyl-5-(naphthalen-2-ylmethyl)-7H-pyrrolo[2,3-c]pyridazin-3-yl]butyl}-N-(pyridin-2-ylmethyl)-1H-1,2,3-triazole-4-carboxamide], the EC50 with A549 cells lay within 100 to 500 nM. Besides, the concentration for half-maximal inhibition (IC50) in assay [1] is less than 100 nM.
Taken in the same sequence, the figures for `O=C(NCc1ccccn1)c1cn(CCCCc2cc3c(Cc4ccccc4)c(C4CC4)[nH]c3nn2)nn1` [Example 102, 1-(4-{5-benzyl-6-cyclopropyl-7H-pyrrolo[2,3-c]pyridazin-3-yl}butyl)-N-(pyridin-2-ylmethyl)-1H-1,2,3-triazole-4-carboxamide] were 500 to 5000 nM and less than 100 nM.
On to `N#Cc1cccc(Cc2c(C3CC3)[nH]c3nnc(CCCCn4cc(C(=O)NCc5ccccn5)nn4)cc23)c1` [Example 103, 1-(4-{5-[(3-cyanophenyl)methyl]-6-cyclopropyl-7H-pyrrolo[2,3-c]pyridazin-3-yl}butyl)-N-(pyridin-2-ylmethyl)-1H-1,2,3-triazole-4-carboxamide], for which the EC50 in the assay on A549 cells is 500 to 5000 nM. Besides, the IC50 in assay [1] is less than 100 nM.
Take `O=C(NCc1ccccn1)c1cn(CCCCc2cc3c(Cc4ccccc4F)c(C4CC4)[nH]c3nn2)nn1` [Example 104, 1-(4-{6-cyclopropyl-5-[(2-fluorophenyl)methyl]-7H-pyrrolo[2,3-c]pyridazin-3-yl}butyl)-N-(pyridin-2-ylmethyl)-1H-1,2,3-triazole-4-carboxamide]: the concentration for a half-maximal effect (EC50) in the assay with A549 cells lay in the range of 500 to 5000 nM. Besides, the IC50 in assay [1] is less than 100 nM.
In the same order, the values of `CC(C)(C)OC(=O)N1CC(c2cc3cc(CCCCn4cc(C(=O)NCc5cccc(OC(F)(F)F)c5)nn4)nnc3[nH]2)C1` [Example 105, tert-butyl 3-(3-{4-[4-({[3-(trifluoromethoxy)phenyl]methyl}carbamoyl)-1H-1,2,3-triazol-1-yl]butyl}-7H-pyrrolo[2,3-c]pyridazin-6-yl)azetidine-1-carboxylate] are less than 100 nM and less than 100 nM.
In the same order, the values of `O=C(NCc1ccccn1)c1cn(CCCCc2cc3c(Cc4ccc(Cl)cc4)c(C4CC4)[nH]c3nn2)nn1` [Example 106, 1-(4-{5-[(4-chlorophenyl)methyl]-6-cyclopropyl-7H-pyrrolo[2,3-c]pyridazin-3-yl}butyl)-N-(pyridin-2-ylmethyl)-1H-1,2,3-triazole-4-carboxamide] are 100 to 500 nM and less than 100 nM.
In the same order, the values of `O=C(NCc1cccc(OC(F)(F)F)c1)c1cn(CCCCc2cc3cc(C4CNC4)[nH]c3nn2)nn1` [Example 107, 1-{4-[6-(azetidin-3-yl)-7H-pyrrolo[2,3-c]pyridazin-3-yl]butyl}-N-{[3-(trifluoromethoxy)phenyl]methyl}-1H-1,2,3-triazole-4-carboxamide] are 500 to 5000 nM and 100 to 500 nM.
Consider `O=C(NCc1ccccn1)c1cn(CCCCc2cc3c(-c4ccccc4)c(C4CC4)[nH]c3nn2)nn1` [Example 108, 1-(4-{6-cyclopropyl-5-phenyl-7H-pyrrolo[2,3-c]pyridazin-3-yl}butyl)-N-(pyridin-2-ylmethyl)-1H-1,2,3-triazole-4-carboxamide], for which the EC50 in the assay on A549 cells lay in the range of 100 to 500 nM. In addition, the IC50 in assay [1] is less than 100 nM.
